# Source: patent US20240252506A1 (Hoffmann-La Roche Inc., priority 2021, published 2024)
# Test system: Escherichia coli ATCC 25922
# Assay: Minimal Inhibitory Concentration (MIC) determination, broth microdilution (CLSI M07-A10)
# Assay type: cell-based
# Settings: Escherichia coli, ATCC25922, strain Escherichia coli ATCC 25922, 18-24 hours at 35±2° C., lowest concentration for complete growth inhibition (no visible growth), read-out: Escherichia coli growth inhibition MIC
# How it was run: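 Broth microdilution per CLSI M07-A10; compounds in 2-fold serial dilutions; inoculum from 0.5 McFarland suspension diluted 1:200 in broth. Incubated 18-24 h at 35±2° C in ambient air; MIC (μg/mL) taken as lowest concentration giving no visible growth.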
row,MIC,Structure (SMILES)
1,1 µg/mL,"CN(CCn1nnc2c(F)c3c(c(F)c21)CC(CN1CCC2(CC1)CN(c1cnc4c(n1)NC(=O)CO4)C(=O)O2)C3)C(=O)CN (single isomer, unassigned) [Example 166, 2-Amino-N-methyl-N-[2-[4,8-difluoro-6-[[2-oxo-3-(3-oxo-4H-pyrazino[2,3-b][1,4]oxazin-6-yl)-1-oxa-3,8-diazaspiro[4.5]decan-8-yl]methyl]-6,7-dihydro-5H-cyclopenta[f]benzotriazol-1-yl]ethyl]acetamide]"
2,0.5 µg/mL,"O=C(O)C(F)(F)F.O=C1COc2ncc(N3CC4(CCN(CC5Cc6c(c(F)c7[nH]c([C@@H]8C[C@H](O)CN8)nc7c6F)C5)CC4)OC3=O)nc2N1 [Example 52, 6-[8-[[4,8-difluoro-2-[(2S,4S)-4-hydroxypyrrolidin-2-yl]-3,5,6,7-tetrahydrocyclopenta[f]benzimidazol-6-yl]methyl]-2-oxo-1-oxa-3,8-diazaspiro[4.5]decan-3-yl]-4H-pyrazino[2,3-b][1,4]oxazin-3-one; 2,2,2-trifluoroacetic acid]"
3,≤ 0.06 µg/mL,"NCCn1nc2c(F)c3c(c(F)c2n1)CC(CN1CCC2(CC1)CN(c1cnc4c(n1)NC(=O)CO4)C(=O)O2)C3 [Example 41, 6-[8-[[2-(2-aminoethyl)-4,8-difluoro-6,7-dihydro-5H-cyclopenta[f]benzotriazol-6-yl]methyl]-2-oxo-1-oxa-3,8-diazaspiro[4.5]decan-3-yl]-4H-pyrazino[2,3-b][1,4]oxazin-3-one]"
4,0.125 µg/mL,"NCc1nc2c(F)c3c(c(F)c2[nH]1)CC(CN1CCC2(CC1)CN(c1cnc4c(n1)NC(=O)CO4)C(=O)O2)C3.O=C(O)C(F)(F)F [Example 10, 6-[8-[[2-(aminomethyl)-4,8-difluoro-3,5,6,7-tetrahydrocyclopenta[f]benzimidazol-6-yl]methyl]-2-oxo-1-oxa-3,8-diazaspiro[4.5]decan-3-yl]-4H-pyrazino[2,3-b][1,4]oxazin-3-one; 2,2,2-trifluoroacetic acid]"
5,≤ 0.06 µg/mL,"C[C@@H](N)c1nc2c(F)c3c(c(F)c2[nH]1)CC(CN1CCC2(CC1)CN(c1cnc4c(n1)NC(=O)CO4)C(=O)O2)C3.O=C(O)C(F)(F)F [Example 25, 6-[8-[[2-[(1R)-1-aminoethyl]-4,8-difluoro-3,5,6,7-tetrahydrocyclopenta[f]benzimidazol-6-yl]methyl]-2-oxo-1-oxa-3,8-diazaspiro[4.5]decan-3-yl]-4H-pyrazino[2,3-b][1,4]oxazin-3-one; 2,2,2-trifluoroacetic acid]"
6,0.125 µg/mL,"CNCc1nc2c(F)c3c(cc2[nH]1)CC(CN1CCC2(CC1)CN(c1cnc4c(n1)NC(=O)CO4)C(=O)O2)C3.O=C(O)C(F)(F)F (stereo not shown) [Example 12, 6-[8-[[8-fluoro-2-(methylaminomethyl)-1,5,6,7-tetrahydrocyclopenta[f]benzimidazol-6-yl]methyl]-2-oxo-1-oxa-3,8-diazaspiro[4.5]decan-3-yl]-4H-pyrazino[2,3-b][1,4]oxazin-3-one; 2,2,2-trifluoroacetic acid]"
7,0.25 µg/mL,"O=C(O)C(F)(F)F.O=C1COc2ncc(N3CC4(CCN(CC5Cc6c(c(F)c7[nH]c(C8CNCCO8)nc7c6F)C5)CC4)OC3=O)nc2N1 (stereo not shown) [Example 16, 6-[8-[(4,8-difluoro-2-morpholin-2-yl-3,5,6,7-tetrahydrocyclopenta[f]benzimidazol-6-yl)methyl]-2-oxo-1-oxa-3,8-diazaspiro[4.5]decan-3-yl]-4H-pyrazino[2,3-b][1,4]oxazin-3-one; 2,2,2-trifluoroacetic acid]"
8,0.5 µg/mL,"O=C(O)C(F)(F)F.O=C1COc2ncc(N3CC4(CCN(CC5Cc6c(c(F)c7[nH]c([C@@H]8COCCN8)nc7c6F)C5)CC4)OC3=O)nc2N1 [Example 18, 6-[8-[[4,8-difluoro-2-[(3R)-morpholin-3-yl]-3,5,6,7-tetrahydrocyclopenta[f]benzimidazol-6-yl]methyl]-2-oxo-1-oxa-3,8-diazaspiro[4.5]decan-3-yl]-4H-pyrazino[2,3-b][1,4]oxazin-3-one; 2,2,2-trifluoroacetic acid]"
9,0.25 µg/mL,"NC1(Cn2nc3c(F)c4c(c(F)c3n2)CC(CN2CCC3(CC2)CN(c2cnc5c(n2)NC(=O)CO5)C(=O)O3)C4)CC1.O=C(O)C(F)(F)F [Example 77, 6-[8-[[2-[(1-aminocyclopropyl)methyl]-4,8-difluoro-6,7-dihydro-5H-cyclopenta[f]benzotriazol-6-yl]methyl]-2-oxo-1-oxa-3,8-diazaspiro[4.5]decan-3-yl]-4H-pyrazino[2,3-b][1,4]oxazin-3-one; 2,2,2-trifluoroacetic acid]"
10,0.5 µg/mL,"CN[C@H](CO)Cc1nc2c(F)c3c(c(F)c2[nH]1)CC(CN1CCC2(CC1)CN(c1cnc4c(n1)NC(=O)CO4)C(=O)O2)C3 [Example 57, 6-[8-[[4,8-difluoro-2-[(2S)-3-hydroxy-2-(methylamino)propyl]-3,5,6,7-tetrahydrocyclopenta[f]benzimidazol-6-yl]methyl]-2-oxo-1-oxa-3,8-diazaspiro[4.5]decan-3-yl]-4H-pyrazino[2,3-b][1,4]oxazin-3-one]"
11,0.125 µg/mL,"O=C1COc2ncc(N3CC4(CCN(CC5Cc6c(c(F)c7nn(C8CNC8)nc7c6F)C5)CC4)OC3=O)nc2N1.O=CO [Example 79, 6-[8-[[2-(azetidin-3-yl)-4,8-difluoro-6,7-dihydro-5H-cyclopenta[f]benzotriazol-6-yl]methyl]-2-oxo-1-oxa-3,8-diazaspiro[4.5]decan-3-yl]-4H-pyrazino[2,3-b][1,4]oxazin-3-one; formic acid]"

# Continued, molecule first:
row,Structure (SMILES),MIC
1,"Cc1nc2c(F)c3c(c(F)c2[nH]1)CC(CNCCC1CN(c2cnc4c(n2)NC(=O)CO4)C(=O)O1)C3 (stereo not shown) [Example 1, 6-[5-[2-[(4,8-Difluoro-2-methyl-3,5,6,7-tetrahydrocyclopenta[f]benzimidazol-6-yl)methylamino]ethyl]-2-oxo-oxazolidin-3-yl]-4H-pyrazino[2,3-b][1,4]oxazin-3-one]",0.5 µg/mL
2,"O=C1COc2ncc(N3CC4(CCN(CC5Cc6c(c(F)c7c(nnn7CCNC(=O)[C@H]7CCCN7)c6F)C5)CC4)OC3=O)nc2N1 (stereo partly drawn) [Example 162, (2R)-N-[2-[4,8-difluoro-6-[[2-oxo-3-(3-oxo-4H-pyrazino[2,3-b][1,4]oxazin-6-yl)-1-oxa-3,8-diazaspiro[4.5]decan-8-yl]methyl]-6,7-dihydro-5H-cyclopenta[f]benzotriazol-1-yl]ethyl]pyrrolidine-2-carboxamide]",1 µg/mL
3,"CN(C)CC(=O)N(C)CCn1nc2c(F)c3c(c(F)c2n1)CC(CN1CCC2(CC1)CN(c1cnc4c(n1)NC(=O)CO4)C(=O)O2)C3 [Example 155, N-[2-[4,8-difluoro-6-[[2-oxo-3-(3-oxo-4H-pyrazino[2,3-b][1,4]oxazin-6-yl)-1-oxa-3,8-diazaspiro[4.5]decan-8-yl]methyl]-6,7-dihydro-5H-cyclopenta[f]benzotriazol-2-yl]ethyl]-2-(dimethylamino)-N-methyl-acetamide]",1 µg/mL
4,"CNCC(=O)NCCn1nc2c(F)c3c(c(F)c2n1)CC(CN1CCC2(CC1)CN(c1cnc4c(n1)NC(=O)CO4)C(=O)O2)C3 [Example 159, N-[2-[4,8-difluoro-6-[[2-oxo-3-(3-oxo-4H-pyrazino[2,3-b][1,4]oxazin-6-yl)-1-oxa-3,8-diazaspiro[4.5]decan-8-yl]methyl]-6,7-dihydro-5H-cyclopenta[f]benzotriazol-2-yl]ethyl]-2-(methylamino)acetamide]",0.25 µg/mL
5,"CN(C)CCn1nnc2c(F)c3c(cc21)CC(CN1CCC2(CC1)CN(c1cnc4c(n1)NC(=O)CO4)C(=O)O2)C3 (stereo not shown) [Example 65, 6-[8-[[3-[2-(Dimethylamino)ethyl]-8-fluoro-6,7-dihydro-5H-cyclopenta[f]benzotriazol-6-yl]methyl]-2-oxo-1-oxa-3,8-diazaspiro[4.5]decan-3-yl]-4H-pyrazino[2,3-b][1,4]oxazin-3-one]",0.125 µg/mL
6,C[C@H](C(=O)NCc1nc2cc3c(c(F)c2[nH]1)CC(CN1CCC2(CC1)CN(c1cnc4c(n1)NC(=O)CO4)C(=O)O2)C3)N(C)C (stereo partly shown) [Example 151],0.5 µg/mL

# Same assay, conditions: strain Escherichia coli ATCC 25922, 18-24 hours at 35±2° C., lowest concentration for complete growth inhibition (no visible growth)
row,Escherichia coli growth inhibition MIC,Structure (SMILES)
1,0.25 µg/mL,"N[C@@H](CO)c1nc2cc3c(c(F)c2o1)CC(CN1CCC2(CC1)CN(c1cnc4c(n1)NC(=O)CO4)C(=O)O2)C3 (stereo partly drawn) [Example 144, 6-[8-[[2-[(1S)-1-Amino-2-hydroxy-ethyl]-8-fluoro-6,7-dihydro-5H-cyclopenta[f][1,3]benzoxazol-6-yl]methyl]-2-oxo-1-oxa-3,8-diazaspiro[4.5]decan-3-yl]-4H-pyrazino[2,3-b][1,4]oxazin-3-one]"
2,0.25 µg/mL,"CNCc1nc2cc3c(c(F)c2o1)CC(CN1CCC2(CC1)CN(c1cnc4c(n1)NC(=O)CO4)C(=O)O2)C3 (single isomer, unassigned) [Example 94, 6-[8-[[8-fluoro-2-(methylaminomethyl)-6,7-dihydro-5H-cyclopenta[f][1,3]benzoxazol-6-yl]methyl]-2-keto-1-oxa-3,8-diazaspiro[4.5]decan-3-yl]-4H-pyrazino[2,3-b][1,4]oxazin-3-one]"
3,≤0.06 µg/mL,"CNCCn1nc2cc(F)c3c(c2n1)CC(CN1CCC2(CC1)CN(c1cnc4c(n1)NC(=O)CO4)C(=O)O2)C3 (single isomer, unassigned) [Example 86, 6-[8-[[5-fluoro-2-[2-(methylamino)ethyl]-7.8-dihydro-6H-cyclopenta[e]benzotriazol-7-yl]methyl]-2-oxo-1-oxa-3,8-diazaspiro[4.5]decan-3-yl]-4H-pyrazino[2,3-b][1,4]oxazin-3-one]"
4,0.5 µg/mL,"O=C1COc2ccc(N3CC4(CCN(CC5Cc6cc7nc(C8CNC8)oc7c(F)c6C5)CC4)OC3=O)nc2N1 (single isomer, unassigned) [Example 112, 6-[8-[[2-(azetidin-3-yl)-8-fluoro-6,7-dihydro-5H-cyclopenta[f][1,3]benzoxazol-6-yl]methyl]-2-oxo-1-oxa-3,8-diazaspiro[4.5]decan-3-yl]-4H-pyrido[3,2-b][1,4]oxazin-3-one]"
5,0.25 µg/mL,"CNCCn1cnc2c(F)c3c(c(F)c21)CC(CN1CCC2(CC1)CN(c1cnc4c(n1)NC(=O)CO4)C(=O)O2)C3 (single isomer, unassigned) [Example 127]"
